Our source for the Km values is PMC6093421, “Identification and characterization of terpene synthase genes accounting for volatile terpene emissions in flowers of Freesia x hybrida” (Journal of Experimental Botany, 2018).

In the assay the test system is T1, FhTPS7.
T1 construct: gene TPS7; full-length ORF (570 residues, no transit peptide, TPS-a clade) in pET-32a, E. coli BL21 (DE3), Ni-purified
Description: GC-MS of hexane-extracted products, Michaelis-Menten non-linear fit. It is filed as biochemical, Freesia x hybrida. The following applies: 25 mM HEPES pH 7.4, 15 mM MgCl2, 5 mM DTT, 30 °C, 20 min. The text has this:
GC-MS of hexane-extracted products, Michaelis-Menten non-linear fit on FhTPS7

Turning to `CC(C)=CCC/C(C)=C/CC/C(C)=C/COP(=O)(O)OP(=O)(O)O` [FPP, farnesyl diphosphate], the Km (FPP 1–135 μM) came out at 5.01 ± 0.21 µM.

On to `CC(C)=CCC/C(C)=C/COP(=O)(O)OP(=O)(O)O` [GPP, geranyl diphosphate], for which the Km (GPP 3–270 μM) was 3.71 ± 0.19 µM.
